One assay has as its system Colo205 tumor cells. In words: Cell growth inhibition assay (CellTiter-Glo), Colo205.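 Further: growth measured via total ATP luminescence (CellTiter-Glo) as a proxy for cell number, inhibition expressed against DMSO-treated control wells, 3-day exposure at 0.2% final DMSO.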 Particulars: Homo sapiens, COLO 205, 72 h, read-out: Activity in Colo205 Tumor Cells.
The next assay deals with SK-MEL-28 tumor cells. In words: Cell growth inhibition assay (CellTiter-Glo), SK-MEL-28.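 Further: luminescent total ATP as a proxy for cell number, threefold serial dilutions at 0.2% DMSO, percent growth inhibition versus DMSO vehicle control wells.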 Particulars: Homo sapiens, SK-MEL-28, 72 h, read-out: Activity in SK-MEL-28 Tumor Cells.
Another assay concerns the target B-Raf (Homo sapiens, UniProt P15056). In words: B-Raf Accelerated MEK ATPase assay (BRAMA). The format is biochemical. Conditions: BRAMA enzyme assay; class by pIC50; read-out: B-Raf Activity. As for the experimental part:
Compounds of the present invention were tested for B-Raf […] inhibitory activity in a B-Raf Accelerated MEK ATPase assay (BRAMA). The BRAMA assay is a high sensitivity assay which measures an intrinsic MEK-mediated ATP hydrolysis uncoupled from downstream ERK phosphorylation by coupling the formation of ADP to NADH oxidation through the enzymes pyruvate kinase and lactate dehydrogenase. When ADP production is initiated by addition of catalytic amounts of an activated RAF enzyme and non-phosphorylated MEK, one observes robust ADP production concomitant with RAF-mediated phosphorylation of MEK. Specific details of the assay are disclosed in: C. Rominger, M. Schaber, E. May. Assay for B-Raf Activity Based on Intrinsic MEK ATPase Activity.

SMILES strings stand for the structures.

Sequence of B-Raf (P15056 whole entry): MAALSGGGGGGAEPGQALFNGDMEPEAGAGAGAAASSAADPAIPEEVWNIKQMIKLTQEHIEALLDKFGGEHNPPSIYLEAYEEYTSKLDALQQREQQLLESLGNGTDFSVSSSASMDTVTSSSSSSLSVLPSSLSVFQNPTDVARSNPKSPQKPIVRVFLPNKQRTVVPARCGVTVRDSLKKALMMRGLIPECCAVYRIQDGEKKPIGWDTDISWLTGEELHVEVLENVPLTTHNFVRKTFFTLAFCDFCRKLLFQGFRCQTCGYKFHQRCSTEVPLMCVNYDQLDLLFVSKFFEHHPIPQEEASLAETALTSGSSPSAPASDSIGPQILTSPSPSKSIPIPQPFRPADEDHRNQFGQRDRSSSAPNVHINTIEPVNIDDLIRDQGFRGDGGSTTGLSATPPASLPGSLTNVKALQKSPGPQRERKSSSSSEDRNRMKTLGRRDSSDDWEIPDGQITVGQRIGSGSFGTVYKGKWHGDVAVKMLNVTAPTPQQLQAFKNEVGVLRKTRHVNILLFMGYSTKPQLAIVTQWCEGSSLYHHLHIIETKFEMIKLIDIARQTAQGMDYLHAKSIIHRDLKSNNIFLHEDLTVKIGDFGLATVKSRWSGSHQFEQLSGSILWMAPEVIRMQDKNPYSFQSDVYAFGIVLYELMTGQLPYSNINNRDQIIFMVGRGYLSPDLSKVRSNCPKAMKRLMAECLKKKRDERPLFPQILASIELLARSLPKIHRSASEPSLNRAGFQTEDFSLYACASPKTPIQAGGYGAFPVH

As to `COc1cccc(-c2nc(CF)sc2-c2ccnc(Nc3ccc(OCCN4CCCC4)c(F)c3)n2)c1` [Example 73, 4-{2-(Fluoromethyl)-4-[3-(methyloxy)phenyl]-1,3-thiazol-5-yl}-N-(3-fluoro-4-{[2-(1-pyrrolidinyl)ethyl]oxy}phenyl)-2-pyrimidinamine], the IC50 was 0.5 to 5 µM in the assay on Colo205 tumor cells, 0.5 to 5 µM with SK-MEL-28 tumor cells and below 0.1 µM on B-Raf.

On to `CCNc1nc(-c2ccnc(O)c2)c(-c2ccnc(Nc3ccc(N4CCS(=O)(=O)CC4)nc3)n2)s1` [Example 79], for which the IC50 in the assay on Colo205 tumor cells is above 5 µM; in the assay with SK-MEL-28 tumor cells, above 5 µM; on B-Raf it was below 0.1 µM.

Consider `COc1cc(OC)cc(-c2nc(C)oc2-c2ccnc(Nc3ccc(OC4CCN(CCS(C)(=O)=O)CC4)c(F)c3)n2)c1` [Example 83], for which the IC50 in the assay on Colo205 tumor cells was 0.5 to 5 µM; in the assay on SK-MEL-28 tumor cells, above 5 µM; on B-Raf it was 0.1 to 1 µM.

For `CCNc1nc(-c2cc(C)cc(OC)c2)c(-c2ccnc(Nc3ccc(N4CCN5CCOC[C@H]5C4)nc3)n2)s1` [Example 71, 4-{2-(Ethylamino)-4-[3-methyl-5-(methyloxy)phenyl]-1,3-thiazol-5-yl}-N-{6-[(9aR)-hexahydropyrazino[2,1-c][1,4]oxazin-8(1H)-yl]-3-pyridinyl}-2-pyrimidinamine], the IC50 in the assay on Colo205 tumor cells was below 0.5 µM; in the assay on SK-MEL-28 tumor cells, below 0.5 µM; at B-Raf it was below 0.1 µM.

Regarding `CCNc1nc(-c2ccnc(OC)c2)c(-c2ccnc(Nc3ccc(N4CCN(C)CC4)c(F)c3)n2)s1` [Example 111], the IC50 in the assay with Colo205 tumor cells was 0.5 to 5 µM; with SK-MEL-28 tumor cells it was above 5 µM; on B-Raf it was below 0.1 µM.

In the case of `CCNc1nc(-c2cc(OC)cc(OC)c2)c(-c2ccnc(Nc3ccc(N4CCN5CCCCC5C4)c(F)c3)n2)o1` (stereo not shown) [Example 134], the IC50 was 0.5 to 5 µM in the assay with Colo205 tumor cells, 0.5 to 5 µM in the assay with SK-MEL-28 tumor cells and below 0.1 µM on B-Raf.

As to `CCNc1nc(-c2cc(C)cc(OC)c2)c(-c2ccnc(Nc3ccc(N4CCOCC4)c(C(=O)O)c3)n2)s1` [Example 26, 5-[(4-{2-(Ethylamino)-4-[3-methyl-5-(methyloxy)phenyl]-1,3-thiazol-5-yl}-2-pyrimidinyl)amino]-2-(4-morpholinyl)benzoic acid], the IC50 in the assay on Colo205 tumor cells is below 0.5 µM; in the assay with SK-MEL-28 tumor cells it was below 0.5 µM; at B-Raf, below 0.1 µM.

Regarding `CCc1nc(-c2cc(OC)cc(OC)c2)c(-c2ccnc(Nc3ccc(N4CCN(C)CC4)c(F)c3)n2)o1` [Example 85], the IC50 with Colo205 tumor cells was 0.5 to 5 µM; in the assay with SK-MEL-28 tumor cells, 0.5 to 5 µM; at B-Raf it was below 0.1 µM.

As for `COc1cc(OC)cc(-c2nc(C)oc2-c2ccnc(Nc3ccc(N4CCN(C)CC4)c(F)c3)n2)c1` [Example 84], the IC50 in the assay with Colo205 tumor cells is 0.5 to 5 µM; with SK-MEL-28 tumor cells, 0.5 to 5 µM; at B-Raf, below 0.1 µM.

Regarding `CCNc1nc(-c2cc(OC)cc(OC)c2)c(-c2ccnc(Nc3ccc4c(c3)N(C(C)=O)CC4)n2)o1` [Example 122], the IC50 with Colo205 tumor cells is 0.5 to 5 µM; in the assay on SK-MEL-28 tumor cells it was 0.5 to 5 µM; at B-Raf, below 0.1 µM.

Regarding `CCNc1nc(-c2cc(C)cc(OC)c2)c(-c2ccnc(Nc3ccc(N4CCN(CCOC)CC4)c(C(=O)O)c3)n2)o1` [Example 130], the IC50 with Colo205 tumor cells was 0.5 to 5 µM; in the assay on SK-MEL-28 tumor cells it was 0.5 to 5 µM; at B-Raf, below 0.1 µM.

As to `Nc1cccc(-c2nc(N3CCCC3)sc2-c2ccnc(Nc3ccc(NCCN4CCCC4)c(F)c3)n2)c1` [Example 109], the IC50 in the assay with Colo205 tumor cells is 0.5 to 5 µM; in the assay on SK-MEL-28 tumor cells, 0.5 to 5 µM; at B-Raf, below 0.1 µM.

For the compound `COc1cc(OC)cc(-c2nc(N)oc2-c2ccnc(Nc3ccc(OC4CCN(CCS(C)(=O)=O)CC4)c(F)c3)n2)c1` [Example 75, 4-{2-Amino-4-[3,5-bis(methyloxy)phenyl]-1,3-oxazol-5-yl}-N-[3-fluoro-4-({1-[2-(methylsulfonyl)ethyl]-4-piperidinyl}oxy)phenyl]-2-pyrimidinamine], the IC50 is 0.5 to 5 µM in the assay with Colo205 tumor cells, 0.5 to 5 µM in the assay with SK-MEL-28 tumor cells and below 0.1 µM on B-Raf.

With `CCc1nc(-c2ccc3cc[nH]c3c2)c(-c2ccnc(Nc3ccc(OC4CCN(CCS(C)(=O)=O)CC4)c(F)c3)n2)s1` [Example 68, 4-[2-Ethyl-4-(1H-indol-6-yl)-1,3-thiazol-5-yl]-N-[3-fluoro-4-({1-[2-(methylsulfonyl)ethyl]-4-piperidinyl}oxy)phenyl]-2-pyrimidinamine], the values for the IC50 in the assay with Colo205 tumor cells, with SK-MEL-28 tumor cells and at B-Raf were 0.5 to 5 µM, 0.5 to 5 µM and below 0.1 µM, respectively.

Regarding `CCNc1nc(-c2cc(C)cc(OC)c2)c(-c2ccnc(Nc3ccc(OC4CCN(CCF)CC4)c(C)c3)n2)o1` [Example 126], the IC50 was 0.5 to 5 µM in the assay with Colo205 tumor cells, 0.5 to 5 µM with SK-MEL-28 tumor cells and below 0.1 µM on B-Raf.

Consider `CCNc1nc(-c2cc(OC)cc(OC)c2)c(-c2ccnc(Nc3ccc(N4CCN(C(=O)OCC)CC4)nc3)n2)o1` [Example 121], for which the IC50 is above 5 µM in the assay on Colo205 tumor cells, above 5 µM in the assay with SK-MEL-28 tumor cells and below 0.1 µM at B-Raf.

As to `CCNc1nc(-c2cc(OC)cc(OC)c2)c(-c2ccnc(Nc3ccc(CCN4CCOCC4)cc3)n2)o1` [Example 123], the IC50 in the assay with Colo205 tumor cells is 0.5 to 5 µM; in the assay with SK-MEL-28 tumor cells, above 5 µM; on B-Raf, below 0.1 µM.

For `COc1cccc(-c2nc(C(C)C)sc2-c2ccnc(Nc3ccc(NCCN4CCCC4)cc3)n2)c1` [Example 76, N-(4-{2-(1-Methylethyl)-4-[3-(methyloxy)phenyl]-1,3-thiazol-5-yl}-2-pyrimidinyl)-N′-[2-(1-pyrrolidinyl)ethyl]-1,4-benzenediamine], the IC50 in the assay with Colo205 tumor cells was 0.5 to 5 µM; in the assay with SK-MEL-28 tumor cells, 0.5 to 5 µM; on B-Raf, below 0.1 µM.

With `CCNc1nc(-c2cc(C)cc(OC)c2)c(-c2ccnc(Nc3ccc(N4CCN5CCCCC5C4)c(F)c3)n2)s1` (stereo not shown) [Example 114], the IC50 was 0.5 to 5 µM with Colo205 tumor cells, 0.5 to 5 µM in the assay with SK-MEL-28 tumor cells and below 0.1 µM on B-Raf.

Regarding `COc1cc(OC)cc(-c2nc(N(C)C)sc2-c2ccnc(Nc3ccc(OC4CCN(CCS(C)(=O)=O)CC4)c(F)c3)n2)c1` [Example 24, 4-[4-[3,5-bis(methyloxy)phenyl]-2-(dimethylamino)-1,3-thiazol-5-yl]-N-[3-fluoro-4-({1-[2-(methylsulfonyl)ethyl]-4-piperidinyl}oxy)phenyl]-2-pyrimidinamine], the results for the IC50 with Colo205 tumor cells, in the assay with SK-MEL-28 tumor cells and on B-Raf were below 0.5 µM, 0.5 to 5 µM and below 0.1 µM, respectively.

As for `CCNc1nc(-c2cc(C)cc(OCC)c2)c(-c2ccnc(Nc3ccc(N4CCN(C)CC4)c(F)c3)n2)s1` [Example 39, 4-{2-(Ethylamino)-4-[3-(ethyloxy)-5-methylphenyl]-1,3-thiazol-5-yl}-N-[3-fluoro-4-(4-methyl-1-piperazinyl)phenyl]-2-pyrimidinamine], at B-Raf, the IC50 is below 0.1 µM.

With `CCNc1nc(-c2cc(C)cc(OC)c2)c(-c2ccnc(Nc3ccc(N4CCN(C(C)=O)CC4)nc3)n2)o1` [Example 100], the IC50 with Colo205 tumor cells is below 0.5 µM; in the assay with SK-MEL-28 tumor cells it was below 0.5 µM; on B-Raf, below 0.1 µM.

Turning to `CCNc1nc(-c2cc(OC)cc(OC)c2)c(-c2ccnc(Nc3ccc(OC4CCN(CCF)CC4)c(C)c3)n2)o1` [Example 88], the results for the IC50 in the assay with Colo205 tumor cells, with SK-MEL-28 tumor cells and on B-Raf were 0.5 to 5 µM, 0.5 to 5 µM and below 0.1 µM, respectively.

As for `CCNc1nc(-c2cc(O)ccn2)c(-c2ccnc(Nc3ccc(OCCN4CCCC4)c(Cl)c3)n2)s1` [Example 97], the IC50 is above 5 µM with Colo205 tumor cells, above 5 µM in the assay on SK-MEL-28 tumor cells and 0.1 to 1 µM on B-Raf.

In the case of `CCNc1nc(-c2ccnc(O)c2)c(-c2ccnc(Nc3ccc(NCCN4CCCC4)c(Cl)c3)n2)s1` [Example 110], the IC50 is 0.5 to 5 µM with Colo205 tumor cells, 0.5 to 5 µM in the assay on SK-MEL-28 tumor cells and below 0.1 µM on B-Raf.

`CCc1nc(-c2cc(C)cc(OC)c2)c(-c2ccnc(Nc3ccc(N4CCN5CCOC[C@H]5C4)nc3)n2)s1` [Example 80]: the figures for the IC50 with Colo205 tumor cells, with SK-MEL-28 tumor cells and at B-Raf were above 5 µM, above 5 µM and below 0.1 µM, respectively.

Take `CCNc1nc(-c2cccc(OC)c2)c(-c2ccnc(Nc3ccc(CCN4CCN(S(C)(=O)=O)CC4)nc3)n2)s1` [Example 40, 4-{2-(Ethylamino)-4-[3-(methyloxy)phenyl]-1,3-thiazol-5-yl}-N-(6-{2-[4-(methylsulfonyl)-1-piperazinyl]ethyl}-3-pyridinyl)-2-pyrimidinamine]: the IC50 was below 0.5 µM in the assay with Colo205 tumor cells, 0.5 to 5 µM with SK-MEL-28 tumor cells and below 0.1 µM on B-Raf.

In the case of `CCNc1nc(-c2cc(C)cc(OC)c2)c(-c2ccnc(Nc3ccc(N4CCOCC4)c(F)c3)n2)o1` [Example 101], the figures for the IC50 in the assay with Colo205 tumor cells, in the assay on SK-MEL-28 tumor cells and at B-Raf were below 0.5 µM, 0.5 to 5 µM and below 0.1 µM, respectively.

On to `CCNc1nc(-c2cc(C)cc(OC)c2)c(-c2ccnc(Nc3ccc(N4CCN5CCCCC5C4)c(F)c3)n2)o1` (stereo not shown) [Example 132], for which the figures for the IC50 with Colo205 tumor cells, in the assay with SK-MEL-28 tumor cells and on B-Raf were 0.5 to 5 µM, 0.5 to 5 µM and below 0.1 µM, respectively.

In the case of `CCNc1nc(-c2ccc(C)c(OC)c2)c(-c2ccnc(Nc3ccc(OCCN4CCCC4)c(C#N)c3)n2)s1` [Example 50, 5-[(4-{2-(Ethylamino)-4-[4-methyl-3-(methyloxy)phenyl]-1,3-thiazol-5-yl}-2-pyrimidinyl)amino]-2-{[2-(1-pyrrolidinyl)ethyl]oxy}benzonitrile], the IC50 with Colo205 tumor cells was below 0.5 µM; in the assay on SK-MEL-28 tumor cells it was 0.5 to 5 µM; at B-Raf, below 0.1 µM.

In the case of `COc1cc(OC)cc(-c2nc(N)oc2-c2ccnc(Nc3ccc(N4CCN(C)CC4)c(F)c3)n2)c1` [Example 86], the results for the IC50 with Colo205 tumor cells, in the assay with SK-MEL-28 tumor cells and on B-Raf were 0.5 to 5 µM, 0.5 to 5 µM and below 0.1 µM, respectively.
